From patent publication US20040147505A1, “Novel heteroaryl-diazabicyclo alkanes as cns-modulators” (priority 2001, published 2004) come the findings set out here.

The structures appear in SMILES notation. Where a name gives a salt, the structure may show the parent alone.

By IC50 is commonly meant the midpoint of a concentration-inhibition curve. Broadly, the melting point is the temperature of the solid-liquid transition.

T2 sequence (P12390 25-500): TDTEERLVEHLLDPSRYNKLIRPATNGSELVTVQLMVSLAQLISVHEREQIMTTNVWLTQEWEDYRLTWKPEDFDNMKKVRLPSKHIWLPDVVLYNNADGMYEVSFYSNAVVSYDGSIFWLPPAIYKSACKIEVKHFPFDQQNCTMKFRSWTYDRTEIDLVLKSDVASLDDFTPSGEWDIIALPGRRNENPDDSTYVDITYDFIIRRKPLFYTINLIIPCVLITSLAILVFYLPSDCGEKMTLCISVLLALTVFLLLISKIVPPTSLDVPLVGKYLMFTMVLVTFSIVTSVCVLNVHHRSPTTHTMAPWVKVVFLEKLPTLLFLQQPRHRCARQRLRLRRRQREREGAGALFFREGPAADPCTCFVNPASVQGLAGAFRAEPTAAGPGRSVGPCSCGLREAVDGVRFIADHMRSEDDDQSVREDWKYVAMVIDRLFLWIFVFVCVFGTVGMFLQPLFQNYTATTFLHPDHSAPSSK
T2 sequence (P09483 31-630): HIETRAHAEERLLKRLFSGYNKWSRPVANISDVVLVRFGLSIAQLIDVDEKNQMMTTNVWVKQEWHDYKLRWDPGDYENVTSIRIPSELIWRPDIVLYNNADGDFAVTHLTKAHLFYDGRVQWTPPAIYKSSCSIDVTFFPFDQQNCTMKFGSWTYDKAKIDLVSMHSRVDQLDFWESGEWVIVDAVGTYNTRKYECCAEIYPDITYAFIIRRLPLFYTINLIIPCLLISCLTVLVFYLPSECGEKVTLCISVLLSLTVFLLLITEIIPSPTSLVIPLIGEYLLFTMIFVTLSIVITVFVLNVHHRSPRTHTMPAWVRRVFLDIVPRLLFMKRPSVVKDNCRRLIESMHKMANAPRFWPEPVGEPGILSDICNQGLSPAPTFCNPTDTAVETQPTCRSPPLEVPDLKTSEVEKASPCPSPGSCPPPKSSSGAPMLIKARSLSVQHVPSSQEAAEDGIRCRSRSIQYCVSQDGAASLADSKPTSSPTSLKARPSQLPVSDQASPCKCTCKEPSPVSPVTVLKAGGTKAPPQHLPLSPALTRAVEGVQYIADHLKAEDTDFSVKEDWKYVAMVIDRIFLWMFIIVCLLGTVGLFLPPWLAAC

One data set deals with T1, serotonin transporter (Rattus norvegicus, UniProt P31652).
T1 construct: Cerebral cortices from male Wistar rats (150-200 g) are homogenized; from tissue; host or cells: rat cerebral cortex synaptosomes (P2 pellet)
T1 sequence (P31652 whole entry): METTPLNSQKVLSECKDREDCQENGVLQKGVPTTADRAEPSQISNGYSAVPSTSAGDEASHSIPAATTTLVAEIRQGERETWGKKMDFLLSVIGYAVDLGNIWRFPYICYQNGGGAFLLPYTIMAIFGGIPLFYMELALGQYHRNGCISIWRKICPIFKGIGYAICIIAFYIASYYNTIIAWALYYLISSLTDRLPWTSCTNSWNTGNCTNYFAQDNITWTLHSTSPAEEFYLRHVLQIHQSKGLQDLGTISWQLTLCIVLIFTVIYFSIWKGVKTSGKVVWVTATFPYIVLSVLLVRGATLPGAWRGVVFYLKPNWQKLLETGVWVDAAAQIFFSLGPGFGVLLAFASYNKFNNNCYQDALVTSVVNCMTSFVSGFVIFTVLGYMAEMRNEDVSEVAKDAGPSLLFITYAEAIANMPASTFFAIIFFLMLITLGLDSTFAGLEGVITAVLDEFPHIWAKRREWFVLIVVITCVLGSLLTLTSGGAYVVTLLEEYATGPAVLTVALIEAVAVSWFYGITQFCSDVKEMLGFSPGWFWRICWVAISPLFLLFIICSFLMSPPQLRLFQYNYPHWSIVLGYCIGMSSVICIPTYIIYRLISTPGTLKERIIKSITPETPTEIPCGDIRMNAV
The data set is described as follows: In vitro inhibition of 3H-5-hydroxytryptamine (3H-5-HT, serotonin) uptake in cortical synaptosomes. To be noted: cortical synaptosomes from male Wistar rats; 3H-5-HT 1 nM; 30 min at 37° C. The class given is biochemical. The procedure: The activity of the serotonin transporter integral protein can be measured in vitro by synaptosomal uptake of ^3H-5-hydroxytryptamine.
Preparations are performed at 0-4° C. unless otherwise indicated. […] Monoamine oxidase activity will be inhibited in the presence of pargyline. The homogenate is centrifuged at 1000×g for 10 min. The resulting supernatant is then centrifuged at 27,000×g for 50 min and the supernatant is discarded.
Non-specific uptake is determined using citalopram (1 μM, final concentration). After incubation the samples are poured directly onto Whatman GF/C glass fibre filters under suction. The filters are then washed three times with 5 ml of ice-cold 0.9% (w/v) NaCl solution. The amount of radioactivity on the filters is determined by conventional liquid scintillation counting. Specific uptake is calculated as the difference between total uptake and non-specific uptake.
Compound `O=[N+]([O-])c1ccc2nc(N3CC4CC(CN(Cc5ccccc5)C4)C3)ccc2c1` [Compound C6, 3-Benzyl-7-(6-nitro-2-quinolinyl)-3,7-diazabicyclo-[3.3.1]-nonane] registered an IC50 of 5.7 nM. The compound `c1ccc(CN2CC3CC(C2)CN(c2ccc4ccccc4n2)C3)cc1` [Compound C3, 3-Benzyl-7-(2-quinolinyl)-3,7-diazabicyclo-[3.3.1]-nonane] yielded an IC50 of 22 nM.

Test system in another data set: not given
Experiment: not given
Details: not given
`Clc1ccc(N2CC3CC(CN(Cc4ccccc4)C3)C2)nn1` (as salt: fumaric acid salt) registered a melting point of 204 to 205 °C. Same read-out and setting: the result for `O=[N+]([O-])c1ccc2nc(N3CC4CC(CN(Cc5ccccc5)C4)C3)ccc2c1` (as salt: fumaric acid salt) [Compound C6, 3-Benzyl-7-(6-nitro-2-quinolinyl)-3,7-diazabicyclo-[3.3.1]-nonane] reads 168 to 172 °C; that for `CN1CC2CC(C1)CN(c1ccc(-c3ccccc3)nn1)C2` (as salt: fumaric acid salt), 213.9 to 220.8 °C; that for `Clc1ccc(N2CC3CNCC(C3)C2)nn1` (as salt: fumaric acid salt) [Compound F1, 3-H-7-(6-Chloro-3-pyridazinyl)-3,7-diazabicyclo-[3.3.1]-nonane], 195.5 to 196.5 °C.

Consider `Clc1cncc(N2CC3CNCC(C3)C2)n1` (as salt: fumaric acid salt) [Compound F2, 3-H-7-(6-Chloro-2-pyrazinyl)-3,7-diazabicyclo-[3.3.1]-nonane], for which the melting point was 180.3 to 181.9 °C. `c1ccc(CN2CC3CC(C2)CN(c2ccc4ccccc4n2)C3)cc1` (as salt: fumaric acid salt) [Compound C3, 3-Benzyl-7-(2-quinolinyl)-3,7-diazabicyclo-[3.3.1]-nonane] registered a melting point of 56.1 to 56.8 °C. Same read-out and setting: then `C=CCN1CC2CC(C1)CN(c1ccc(-c3ccccc3)nn1)C2` (as salt: fumaric acid salt), with 183.5 to 187.6 °C; and `Clc1cncc(N2CC3CC(CN(Cc4ccccc4)C3)C2)n1` (as salt: fumaric acid salt), with 183.1 to 183.3 °C.

Another data set concerns the target T2, nAChRs comprised of α4 and β2 subunits (Rattus norvegicus, UniProt P09483+P12390).
T2 construct: Cerebral corticies from male Wistar rats (150-250 g) are homogenized; from tissue; host or cells: rat cerebral cortex membrane homogenate
The data set is described as follows: In vitro inhibition of 3H-cytisine binding. The settings on record: cerebral cortex homogenate from male Wistar rats; 3H-cytisine 1 nM; 90 min at 2° C. The protocol: The predominant subtype with high affinity for nicotine is comprised of α4 and β2 subunits. nAChRs of the latter type can selectively be labelled by the nicotine agonist ^3H-cytisine.
Cerebral corticies from male Wistar rats (150-250 g) are homogenized for 20 sec in 15 ml Tris, HCl (50 mM, pH 7.4) containing 120 mM NaCl, 5 mM KCl, 1 mM MgCl2 and 2.5 mM CaCl2 using an Ultra-Turrax homogenizer. The homogenate is centrifuged at 27,000×g for 10 min. The supernatant is discarded and the pellet is resuspended in fresh buffer and centrifuged a second time. The final pellet is resuspended in fresh buffer (35 ml per g of original tissue) and used for binding assays.
Aliquots of 500 μl homogenate are added to 25 μl of test solution and 25 μl of ^3H-cytisine (1 nM, final concentration), mixed and incubated for 90 min at 2° C. Non-specific binding is determined using (−)-nicotine (100 μM, final concentration). After incubation the samples are added 5 ml of ice-cold buffer and poured directly onto Whatman GF/C glass fibre filters under suction and immediately washed with 2×5 ml ice-cold buffer. The amount of radioactivity on the filters is determined by conventional liquid scintillation counting. Specific binding is total binding minus non-specific binding.
`Clc1ccc(N2CC3CNCC(C3)C2)nn1` [Compound F1, 3-H-7-(6-Chloro-3-pyridazinyl)-3,7-diazabicyclo-[3.3.1]-nonane]: the half-maximal inhibitory concentration (IC50) was 3 nM.

As for `Clc1cncc(N2CC3CNCC(C3)C2)n1` [Compound F2, 3-H-7-(6-Chloro-2-pyrazinyl)-3,7-diazabicyclo-[3.3.1]-nonane], the IC50 turned out to be 3.4 nM.
